# Measured values published in US20080032945A1, “2'-MODIFIED OLIGONUCLEOTIDES” (Isis Pharmaceuticals, Inc., priority 1992, published 2008).
# Values joined by “and” are separate entries in the source; they are usually repeats but may differ in a detail not shown here. Identical values can stand only once. “Also recorded” adds a separate entry of the source. d = 2'-deoxy (DNA); m = 2'-O-methyl; f = 2'-fluoro
# What was measured:
# [1] = tested on: c-raf mRNA; assay: Northern blot analysis of inhibition of c-raf mRNA expression in T24 cells; type: cell-based, human
# Source text: Chimeric oligonucleotides having SEQ ID NO:7 were designed using the Genbank c-raf sequence HUMRAFR (Genbank listing x03484), synthesized and tested for inhibition of c-raf mRNA expression in T24 bladder carcinoma cells using a Northern blot assay. These chimeric oligonucleotides have central “gap” regions of 6, 8 or 10 deoxynucleotides flanked by two regions of 2′-O-methyl modified nucleotides, and are shown in Table 10. Backbones were uniformly phosphorothioate. […] These oligonucleotides are preferred.
# The human urinary bladder cancer cell line T24 was obtained from the American Type Culture Collection (Rockville, Md.). Cells were grown in McCoy's 5A medium with L-glutamine (GIBCO-BRL, Gaithersburg, Md.), supplemented with 10% heat-inactivated fetal calf serum and 50 U/ml each of penicillin and streptomycin. Cells were seeded on 100 mm plates. When they reached 70% confluency, they were treated with oligonucleotide. Plates were washed with 10 ml prewarmed PBS and 5 ml of OptiMEM reduced-serum medium containing 2.5 μl DOTMA. Oligonucleotide with lipofectin was then added to the desired concentration. After 4 hours of treatment, the medium was replaced with McCoy's medium. Cells were harvested 24 to 72 hours after oligonucleotide treatment and RNA was isolated using a standard CsCl purification method. [Kingston in Current Protocols in Molecular Biology, F. M. Ausubel, R. Brent, R. E. Kingston, D. D. Moore, J. A. Smith, J. G. Seidman and K. Strahl, Eds., John Wiley and Sons, New York.] Total RNA was isolated by centrifugation of cell lysates over a CsCl cushion. RNA samples were electrophoresed through 1.2% agarose-formaldehyde gels and transferred to hybridization membranes by capillary diffusion over a 12-14 hour period. The RNA was cross-linked to the membrane by exposure to UV light in a Stratalinker (Stratagene, La Jolla, Calif.) and hybridized to random-primed ^32P-labeled c-raf cDNA probe (obtained from ATCC) or G3PDH probe as a control. RNA was quantitated using a Phosphorimager (Molecular Dynamics, Sunnyvale, Calif.).
# [2] = tested on: 25mer oligoribonucleotide complement; assay: Melting curves with 25mer oligoribonucleotide complement; type: binding; settings: 17mer hybridized with 25mer oligoribonucleotide complement
# Source text: Other sugar modifications: The effects of other 2′ sugar modifications besides 2′-O-methyl on antisense activity in chimeric oligonucleotides have been examined. These modifications are listed in Table 4, along with the Tm values obtained when 17mer oligonucleotides having 2′-modified nucleotides flanking a 7-base deoxy gap were hybridized with a 25mer oligoribonucleotide complement as described in Example 25. […] As alkyl length increased, Tm decreased.
# Absorbance vs. temperature curves were measured at 260 nm using a Gilford 260 spectrophotometer interfaced to an IBM PC computer and a Gilford Response II spectrophotometer. The buffer contained 100 mM Na^+, 10 mM phosphate and 0.1 mM EDTA, pH 7. Oligonucleotide concentration was 4 μM each strand determined from the absorbance at 85° C. and extinction coefficients calculated according to Puglisi and Tinoco [Methods in Enzymol., 180, 304 (1989). Tm values, free energies of duplex formation and association constants were obtained from fits of data to a two state model with linear sloping baselines. [Petersheim and Turner, Biochemistry, 22, 256 (1983). Reported parameters are averages of at least three experiments. For some oligonucleotides, free energies of duplex formation were also obtained from plots of Tm^−1 vs log10 (concentration). Borer et al., J. Mol. Biol., 86, 843 (1974).
# [3] = tested on: H-ras; assay: ras transactivation reporter gene assay; type: cell-based; settings: result in words
# Method: These 2′ modified oligonucleotides were tested for antisense activity against H-ras using the transactivation reporter gene assay described in Example 26. […] A 2′-fluoro chimeric oligonucleotide with a centered 5-deoxy gap was also active.
# The expression plasmid pSV2-oli, containing an activated (codon 12, GGC-GTC) H-ras cDNA insert under control of the constitutive SV40 promoter, was a gift from Dr. Bruno Tocque (Rhone-Poulenc Sante, Vitry, France). This plasmid was used as a template to construct, by PCR, a H-ras expression plasmid under regulation of the steroid-inducible mouse mammary tumor virus (MMTV) promoter. To obtain H-ras coding sequences, the 570 bp coding region of the H-ras gene was amplified by PCR. The PCR primers were designed with unique restriction endonuclease sites in their 5′-regions to facilitate cloning. The PCR product containing the coding region of the H-ras codon 12 mutant oncogene was gel purified, digested, and gel purified once again prior to cloning. This construction was completed by cloning the insert into the expression plasmid pMAMneo (Clontech Laboratories, CA).
# The ras-responsive reporter gene pRDO53 was used to detect ras expression. [Owen et al., Proc. Natl. Acad. Sci. U.S.A., 87, 3866 (1990).
# [4] = tested on: ras mRNA; assay: Northern blot analysis of ras expression in T24 cells; type: cell-based, human; settings: for ras expression / ras mRNA levels: result in words
# Method: The human urinary bladder cancer cell line T24 was obtained from the American Type Culture Collection (Rockville Md.). Cells were grown in McCoy's 5A medium with L-glutamine (GIBCO-BRL, Gaithersburg, Md.), supplemented with 10% heat-inactivated fetal calf serum and 50 U/ml each of penicillin and streptomycin. Cells were seeded on 100 mm plates. When they reached 70% confluency, they were treated with oligonucleotide. Plates were washed with 10 ml prewarmed PBS and 5 ml of OptiMEM (GIBCO) reduced-serum medium containing 2.5 μl DOTMA. Oligonucleotide was then added to the desired concentration. After 4 hours of treatment, the medium was replaced with McCoy's medium. Cells were harvested 48 hours after oligonucleotide treatment and RNA was isolated using a standard CsCl purification method. [Kingston in Current Protocols in Molecular Biology, F. M. Ausubel, R. Brent, R. E. Kingston, D. D. Moore, J. A. Smith, J. G. Seidman and K. Strahl, Eds., John Wiley and Sons, New York.] The human epithelioid carcinoma cell line HeLa 229 was obtained from the American Type Culture Collection (Bethesda, Md.). HeLa cells were maintained as monolayers on 6-well plates in Dulbecco's Modified Eagle's medium (DMEM) supplemented with 10% fetal bovine serum and 100 U/ml penicillin. Treatment with oligonucleotide and isolation of RNA were essentially as described above for T24 cells.
# Northern hybridization: 10 μg of each RNA was electrophoresed on a 1.2% agarose/formaldehyde gel and transferred overnight to GeneBind 45 nylon membrane (Pharmacia LKB, Piscataway, N.J.) using standard methods. [Kingston in Current Protocols in Molecular Biology, F. M. Ausubel, R. Brent, R. E. Kingston, D. D. Moore, J. A. Smith, J. G. Seidman and K. Strahl, Eds., John Wiley and Sons, New York.] RNA was UV-crosslinked to the membrane. Double-stranded ^32P-labeled probes were synthesized using the Prime a Gene labeling kit (Promega, Madison Wis.). The ras probe was a SalI-NheI fragment of a cDNA clone of the activated (mutant) H-ras mRNA having a GGC-to-GTC mutation at codon-12. The control probe was G3PDH. Blots were prehybridized for 15 minutes at 68° C. with the QuickHyb hybridization solution (Stratagene, La Jolla, Calif.). The heat-denatured radioactive probe (2.5×10^6 counts/2 ml hybridization solution) mixed with 100 μl of 10 mg/ml salmon sperm DNA was added and the membrane was hybridized for 1 hour at 68° C. The blots were washed twice for 15 minutes at room temperature in 2×SSC/0.1% SDS and once for 30 minutes at 60° C. with 0.1×SSC/0.1% SDS. Blots were autoradiographed and the intensity of signal was quantitated using an ImageQuant PhosphorImager (Molecular Dynamics, Sunnyvale, Calif.). Northern blots were first hybridized with the ras probe, then stripped by boiling for 15 minutes in 0.1×SSC/0.1% SDS and rehybridized with the control G3PDH probe to check for correct sample loading.
# [5] = tested on: T24 cancer cell proliferation; assay: Antisense oligonucleotide inhibition of proliferation of cancer cells; type: cell-based, human; settings: for IC50: T24 cell proliferation, dose-response; for inhibited cell proliferation: T24 cells
# Method: Antisense oligonucleotide inhibition of proliferation of cancer cells: Three 17mer oligonucleotides having the same sequence (SEQ ID NO:1), complementary to the codon 12 region of activated ras, were tested for effects on T24 cancer cell proliferation as described in Example 28. 3985 is a full phosphorothioate oligonucleotide having a 7-deoxy gap flanked by 2′-O-methyl nucleotides, and 4690 is a full phosphorothioate oligonucleotide having a 7-deoxy gap flanked by 2′-F nucleotides (C^FC^FA^F C^FA^FCd CdGdAd CdGdGd C^FG^FC^F C^FC^F, SEQ ID NO:1, nucleotides identified with an “^F” contain a […] substituent group and the remainder of the nucleotides identified with a “d” are 2′-deoxy-erythro-pentofuranosyl nucleotides).
# Cells were cultured and treated with oligonucleotide essentially as described in Example 27. Cells were seeded on 60 mm plates and were treated with oligonucleotide in the presence of DOTMA when they reached 70% confluency. Time course experiment: On day 1, cells were treated with a single dose of oligonucleotide at a final concentration of 100 nM. The growth medium was changed once on day 3 and cells were counted every day for 5 days, using a counting chamber. Dose-response experiment: Various concentrations of oligonucleotide (10, 25, 50, 100 or 250 nM) were added to the cells and cells were harvested and counted 3 days later. Oligonucleotides 2570, 3985 and 4690 were tested for effects on T24 cancer cell proliferation.
# [6] = tested on: ras-luciferase (codon-12 point mutation of activated H-ras); assay: ras-luciferase reporter gene system; type: cell-based, human; settings: for inhibition of ras-luciferase activity: cells expressing the mutant form of ras-luciferase, dose response, FIGS. 1 and 2
# [7] = tested on: ras mRNA (wild-type H-ras codon-12); assay: Northern blot analysis of ras expression in HeLa cells; type: cell-based, human; settings: result in words
# Method: Oligonucleotides 2570 and 2503 were also tested to determine their effects on ras expression in HeLa cells, which have a wild-type (i.e., not activated) H-ras codon-12.
# The human urinary bladder cancer cell line T24 was obtained from the American Type Culture Collection (Rockville Md.). Cells were grown in McCoy's 5A medium with L-glutamine (GIBCO-BRL, Gaithersburg, Md.), supplemented with 10% heat-inactivated fetal calf serum and 50 U/ml each of penicillin and streptomycin. Cells were seeded on 100 mm plates. When they reached 70% confluency, they were treated with oligonucleotide. Plates were washed with 10 ml prewarmed PBS and 5 ml of OptiMEM (GIBCO) reduced-serum medium containing 2.5 μl DOTMA. Oligonucleotide was then added to the desired concentration. After 4 hours of treatment, the medium was replaced with McCoy's medium. Cells were harvested 48 hours after oligonucleotide treatment and RNA was isolated using a standard CsCl purification method. […]
# Northern hybridization: 10 μg of each RNA was electrophoresed on a 1.2% agarose/formaldehyde gel and transferred overnight to GeneBind 45 nylon membrane (Pharmacia LKB, Piscataway, N.J.) using standard methods. […] Blots were autoradiographed and the intensity of signal was quantitated using an ImageQuant PhosphorImager (Molecular Dynamics, Sunnyvale, Calif.). […]
substance,measurement,setting,value
"CTCGCCCGCTCCTCCTCCCC (all phosphorothioate, sugars by position and methylation of C not given here; further chemistry not fully specified) [ISIS 7849, chimeric 2′-O-methyl P═S c-raf oligonucleotide, 5′UTR]",inhibition of c-raf mRNA expression,[1],> 70%
C^FC^FA^F C^FA^FCd CdGdAd CdGdGd C^FG^FC^F C^FC^F [Oligonucleotide 4690],Tm,[2],76.9 °C
same,antisense activity against H-ras (ras expression),[3],most active
same,inhibition of ras expression / decrease of ras mRNA,[4],82%
same,IC50,[5],44 nM
same,inhibited cell proliferation,[5],93%
C^MC^MA^M C^MA^MCd CdGdAd CdGdGd C^MG^MC^M C^MC^M [Oligonucleotide 3985],inhibition of ras-luciferase activity,[6],greatest inhibition
same,Tm,[2],74.7 °C
same,inhibition of ras expression / decrease of ras mRNA,[4],95% and 81%
same,IC50,[5],61 nM
same,inhibited cell proliferation,[5],82%
"CdCdAd CdAdCd CdGdAd CdGdGd CdGdCd CdCd [Oligonucleotide 2570, reference compound]",selectivity toward the mutant form of ras-luciferase as compared to the normal form,[6],threefold
same,inhibition of ras-luciferase activity,[6],dose-dependent inhibition
same,Tm,[2],64.2 °C
same,ras expression / ras mRNA levels,[4],inhibited ras expression in T24 cells; also recorded: decreased ras mRNA levels in T24 cells
same,ras expression,[7],did not inhibit ras expression in HeLa cells
"Oligonucleotide 4689: SEQ ID NO:1 chimeric oligonucleotide, 2′-fluoro-modified nucleotides flanking a 5-deoxy gap (CCACACCGACGGCGCCC; sugars from the 5' end f6 d5 f6, backbone and methylation of C not given here)",antisense activity against H-ras (ras expression),[3],also active
same,inhibition of ras expression / decrease of ras mRNA,[4],63%
"TCCCGCCTGTGACATGCATT (all phosphorothioate, sugars by position and methylation of C not given here; further chemistry not fully specified) [ISIS 6717, chimeric 2′-O-methyl P═S c-raf oligonucleotide, 8-deoxy gap]",inhibition of c-raf mRNA expression,[1],greater than 90%
"TCCGTCATCGCTCCTCAGGG [Compound 2503, reference compound]",inhibition of ras expression / decrease of ras mRNA,[4],71%
same,ras expression / ras mRNA levels,[4],inhibited ras expression in T24 cells
same,ras expression,[7],inhibited ras expression in HeLa cells
"TTCTCCTCCTCCCCTGGCAG (sugars from the 5' end m12 d8, all phosphorothioate, T or U not given here) [ISIS 7854, chimeric 2′-O-methyl P═S c-raf oligonucleotide, 3′UTR]",inhibition of c-raf mRNA expression,[1],> 70%
"TTCTCGCCCGCTCCTCCTCC (all phosphorothioate, sugars by position and methylation of C not given here; further chemistry not fully specified) [ISIS 7856, chimeric 2′-O-methyl P═S c-raf oligonucleotide, 5′UTR]",inhibition of c-raf mRNA expression,[1],> 70%
